± gives the expanded uncertainty stated by the source.
Key:
[1] = Liquid; for mass density: 293.15 K, 101.33 kPa
[2] = refractive index (Na D-line) (dimensionless); details: 293.15 K; 101.33 kPa; Liquid; Standard Abbe refractometry

mass density [1] | SMILES | mass density ([1]; Vibrating tube method) | Normal boiling temperature [1] | refractive index [2]
 | CCOC(=O)c1ccccc1C(=O)OCC [diethyl phthalate] | 1117.2 ± 0.6 kg/m3 | 298.02 ± 0.1 °C | 1.5003 ± 0.0008
992.7 ± 0.5 kg/m3 | CCC(=O)O [propanoic acid] |  | 141.0 ± 0.1 °C | 1.3811 ± 0.0008

— the NIST ThermoML archive (doi:10.1016/j.jct.2005.02.005)
